In ChEMBL document CHEMBL5137125, “Echiumin E, an Aryl Dihydronaphthalene Lignan from the Australian Invasive Plant Paterson's Curse (Echium plantagineum)” (J Nat Prod, 2022):

Assays:
[1] = Cytotoxicity against human WPMY-1 cells assessed as inhibition of cell growth and measured after 72 hrs resazurin reduction assay; assay type: toxicity, cell-based; conditions: for IC50 at 72 h: WPMY-1 cells
PC-3 = experiment: Cytotoxicity against human PC-3 cells assessed as inhibition of cell growth and measured after 72 hrs resazurin reduction assay; assay type: functional, cell-based; conditions: PC-3, 72 h
SH-SY5Y [2] = experiment: Cytotoxicity against human SH-SY5Y cells assessed as inhibition of cell growth and measured after 72 hrs resazurin reduction assay; assay type: functional, cell-based
SH-SY5Y [3] = experiment: Cytotoxicity against human SH-SY5Y cells assessed as inhibition of cell growth and measured upto 72 hrs by clonogenic assay; assay type: functional, cell-based
HeLa = experiment: Cytotoxicity against human HeLa cells assessed as inhibition of cell growth and measured after 72 hrs resazurin reduction assay; assay type: functional, cell-based

Compound	Activity ([1]; wpmy-1, 72 h, time 72 hrs)	IC50 (PC-3) [nM]	IC50 (SH-SY5Y [2]) [nM]	IC50 at 72 h [1] [nM]	IC50 (SH-SY5Y [3]) [nM]	IC50 (HeLa) [nM]
COc1cc([C@H]2c3cc(O)c(OC)cc3C=C3C(=O)OC[C@H]4O[C@@](CO)(O[C@H]5O[C@H](COC(=O)/C=C/c6ccc(O[C@@H]7O[C@@H](C)[C@H](O)[C@@H](O)[C@H]7O)cc6)[C@@H](O)[C@H](O)[C@H]5O)[C@@H](OC(=O)[C@@H]32)[C@@H]4O)ccc1O	Non-Toxic	> 10000	> 10000			
O=C(O[C@H](Cc1ccc(O)c(O)c1)C(=O)O)c1cc(-c2ccc(O)c(O)c2)c2cc(O)c(O)cc2c1		> 10000	> 10000	> 10000		
O=C(OC(Cc1ccc(O)c(O)c1)C(=O)O)C1=Cc2cc(O)c(O)cc2[C@H](c2ccc(O)c(O)c2)[C@H]1C(=O)O[C@@H](Cc1ccc(O)c(O)c1)C(=O)O (some centres undefined)		> 10000	> 10000	> 10000		
CC(=O)O[C@@]12CO[C@@H]1C[C@H](O)[C@@]1(C)C(=O)[C@H](O)C3=C(C)[C@@H](OC(=O)[C@H](O)[C@@H](NC(=O)OC(C)(C)C)c4ccccc4)C[C@@](O)([C@@H](OC(=O)c4ccccc4)[C@H]21)C3(C)C [DOCETAXEL ANHYDROUS]		0.6		210	1.8	
COc1cccc2c1C(=O)c1c(O)c3c(c(O)c1C2=O)C[C@@](O)(C(=O)CO)C[C@@H]3O[C@H]1C[C@H](N)[C@H](O)[C@H](C)O1 [DOXORUBICIN]		10	40	20		1960
O=C(/C=C/c1ccc(O)c(O)c1)O[C@H](Cc1ccc(O)c(O)c1)C(=O)O [ROSMARINIC ACID]		> 10000	> 10000	> 10000		
